Results reported in US9181182B2, “S1P receptors modulators” (Akaal Pharma PTY LTD, priority 2008, dated 2015).
Structures can show the parent of a compound that is named as a salt.

Experiments:
S1P1 human receptor = S1P1 human receptor (Homo sapiens (Human), UniProt P21453); assay: S1P1 [35S]-GTPgamaS binding assay (agonist activity); assay type: biochemical; conditions: for EC50: GTPgamaS binding, agonist; for EC50S1P1/EC50S1P: potency at S1P1 relative to S1P; for Efficacy (% of maximum): S1P1, relative to reference agonist S1P
Procedure: Selected Compounds of the Examples were evaluated at Millipore Corporation, USA, using S1P1 receptor; [^35S]-GTPgamaS binding assay. A [^35S]-GTPgamaS binding assay at Millipore was conducted by GPCR Profiler™ Custom Service Laboratory, Temecula, Calif., Millipore, Inc. to monitor dose-dependent agonist selectivity for selected Examples against the S1P1 receptors. The assay was completed with sample compounds subjected to an eight-point, four-fold dose response curve with starting concentration of 10 μM. Selectivity was determined upon initial addition of compounds followed by a 30 minute incubation at 30° C. Following compound incubation, bounded [^35S]-GTPgamaS was determined by filtration and scintillation counting.
Independently, selected compounds were evaluated for S1P1 and S1P3 agonistic activity. The S1P1 assay system was GTPgama-S35 binding in membranes from CHO K1 cells, expressing S1P1 human receptor. The S1P3 assay system was calcium mobilization in CHO K1 cells expressing S1P3 human receptor. […] Compounds were tested initially at a concentration of 10 μM.

[1] = system: Human promyelocytic leukemia (HL-60) cells; assay: Cell viability (growth inhibition) assay, MTS; assay type: cell-based; conditions: 50% reduction in cell viability of HL-60 cells, 48 hr incubation
Procedure: In order to measure the apoptotic effect of compounds on the metabolic activity of viable cells, the following assay was performed on Human promyelocytic leukemia cells. The assay utilises the tetrazolium compound (3-(4,5-dimethylthiazol-2-yl)-5-(3-carboxymethoxyphenyl)-2-(4-sulfophenyl)-2H-tetrazolium, inner salt; (MTS) and an electron coupling reagent (phenazine methosulfate; (PMS). MTS is bioreduced by cells into a formazan product the optical absorbance of which is measured directly from 96 well assay plates. The conversion of MTS into aqueous, soluble formazan is accomplished by dehydrogenase enzymes found in metabolically active cells. The quantity of formazan product as measured by the amount of 490 nm absorbance is directly proportional to the number of living cells in culture.
The assay was based on the National Cancer Institute (NCI) protocol, briefly, cells were grown in RPMI 1640 media supplemented with 10% FCS (foetal calf serum) and kept at 37° C. in a humidified environment with 5% CO2.
For the growth inhibition assay, Human promyelocytic leukemia (HL-60) cells were seeded at a density of 10,000 cells per well in 96 well plates in a volume of 100 μl and allowed to grow for 24 h. Compounds were serially diluted in DMSO at concentrations 100 fold higher than used in the assay (100×). Compounds were freshly prepared for each experiment. The 100× stocks were then diluted to 2× stocks into media and immediately, 100 μl of this 2× stock was added to the cells to create the desired final concentration of drug with a DMSO concentration of 1%. One row of each 96 well plate was treated with DMSO alone as a control. Cells were then incubated for a further 48 hr. Metabolic activity was determined using MTS (Promega) (90% 1.6 mg/ml MTS, 10% 1.6 mg/ml PMS (phenazine methosulfate) made fresh in PBS). 50 μl of this mix was added to all wells of the plates and allowed to incubate for 1.5-2 hr. Plates were shaken gently for about 15 min and absorbance was read on a plate reader at 490 nm. Averages were taken of the readings at each point with standard deviation and plotted using MicroCal Origin.

Sequence of S1P1 human receptor (P21453 whole entry): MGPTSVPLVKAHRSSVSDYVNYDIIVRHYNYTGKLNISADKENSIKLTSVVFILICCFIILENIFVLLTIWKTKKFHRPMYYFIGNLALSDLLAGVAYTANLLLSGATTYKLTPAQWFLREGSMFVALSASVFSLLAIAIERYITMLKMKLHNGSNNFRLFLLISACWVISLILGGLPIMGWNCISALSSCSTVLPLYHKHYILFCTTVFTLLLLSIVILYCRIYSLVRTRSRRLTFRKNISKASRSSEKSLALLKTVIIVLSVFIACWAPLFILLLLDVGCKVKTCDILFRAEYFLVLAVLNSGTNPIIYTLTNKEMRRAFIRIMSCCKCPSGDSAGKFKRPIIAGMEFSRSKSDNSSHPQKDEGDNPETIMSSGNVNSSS

Compound	EC50 (S1P1 human receptor) [µM]	EC50S1P1/EC50S1P (S1P1 human receptor)	IC50 ([1]; Homo sapiens) [µM]	Efficacy (% of maximum) (S1P1 human receptor) [%]	IC50 [1] [µM]
CC(C)(C)OC(=O)NC(CO)(CO)CN1CCc2c(OCc3cc4c(Cl)cc(Cl)cc4o3)cccc21 [41(b), t-butyl 1-(4-((4,6-dichlorobenzofuran-2-yl)methoxy)indolin-1-yl)-3-hydroxy-2-(hydroxymethyl)propan-2-ylcarbamate]	> 29	3066.24	–	–	–
CCCCCCCCc1ccc(NCC(N)(CO)CO)cc1 [Example 1, 2-Amino-2-((4-octylphenylamino)methyl)propane-1,3-diol]	> 25	>9259	–	–	–
CCCCCCCCc1ccc2c(ccn2CC(N)(CO)CO)c1 [Example 4, 2-Amino-2-((5-octyl-1H-indol-1-yl)methyl)propane-1,3-diol]	–	–	3.58 ± 0.04	–	–
CCCCCCCCc1ccc2c(c1)C(=O)C(=O)N2CC(N)(CO)CO [Example 5, 1-(2-Amino-3-hydroxy-2-(hydroxymethyl)propyl)-5-octylindoline-2,3-dione]	–	–	5.72 ± 2.18	–	–
COc1cc(CCc2ccc3c(c2)CCN3CC(N)(CO)CO)cc(OC)c1OC [Example 6, 2-Amino-2-((5-(3,4,5-trimethoxyphenethyl)indolin-1-yl)methyl)propane-1,3-diol]	–	–	44.9 ± 8.85	–	–
NC(CO)(CO)CCc1ccc(CCCn2cc(C(=O)C(F)(F)F)c3ccccc32)cc1 [Example 11, 1-(1-(3-(4-(3-amino-4-hydroxy-3-(hydroxymethyl)butyl)phenyl)propyl)-1H-indol-3-yl)-2,2,2-trifluoroethanone]	–	–	5.54 ± 2.3	–	–
Cl.NC(CO)(CO)CCc1ccc(CCc2ccc(C(=O)c3ccc(F)cc3)cc2)cc1 [Example 12, (4-(4-(3-Amino-4-hydroxy-3-(hydroxymethyl)butyl)phenethyl)phenyl)(4-fluorophenyl)methanone hydrochloride salt]	1.82	557	–	49	–
COc1ccc2c(C(=O)c3cc(OC)c(OC)c(OC)c3)cn(S(=O)(=O)c3ccc(CCC(N)(CO)CO)cc3)c2c1 [Example 13, (1-(4-(3-Amino-4-hydroxy-3-(hydroxymethyl)butyl)phenylsulfonyl)-6-methoxy-1H-indol-3-yl)(3,4,5-trimethoxyphenyl)methanone]	–	–	0.44 ± 0.04	–	–
Cc1ccc(-c2ccc(CCC(N)(CO)CO)cc2)cc1 [Example 18, 2-Amino-2-(2-(4′-methylbiphenyl-4-yl)ethyl)propane-1,3-diol]	–	–	7.07 ± 0.23	–	–
COc1cc(CCc2cccc(CCC(N)(CO)CO)c2)cc(OC)c1OC [Example 21, 2-Amino-2-(3-(3,4,5-trimethoxyphenethyl)phenethyl)propane-1,3-diol]	–	–	28.5 ± 3.21	–	–
NC(CO)(CO)CCc1ccc(O)c(C23CC4CC(CC(C4)C2)C3)c1 [Example 22, 2-Amino-2-(3-(admantyl)-4-hydroxyphenethyl)propane-1,3-diol hydrochloride salt]	–	–	–	–	10.5 ± 0.4
COc1ccc(CCc2ccc(CCC(N)(CO)CO)cc2)cc1C12CC3CC(CC(C3)C1)C2 [Example 26, 2-Amino-2-(4-(3-(1-admantanyl-4-methoxyphenethyl)phenethyl)propane-1,3-diol hydrochloride salt]	–	–	–	–	2.29 ± 0.57
CC(C)Oc1ccc(CCC(N)(CO)CO)cc1C12CC3CC(CC(C3)C1)C2 [Example 28, 2-Amino-2-(3-1-admantanyl-4-isopropoxyphenethyl)propane-1,3-diol hydrochloride salt]	–	–	–	–	1.56 ± 0.37
Cc1ccc(OCCCc2ccc(CCC(N)(CO)CO)cc2)c(C23CC4CC(CC(C4)C2)C3)c1 [Example 29, 2-Amino-2-(4-(3-(2-(1-admanynyl)-4-methylphenoxy)propyl)phenethyl) propane-1,3-diol hydrochloride salt]	–	–	–	–	3.94 ± 0.4
CCCCCCCCc1ccc(CNCC(N)(CO)CO)cc1 [Example 31, 2-Amino-2-((4-octylbenzylamino)methyl)propane-1,3-diol]	–	–	> 10	–	–
NC(CO)(CO)CN1CCc2cc(OCc3ccc(-c4ccccc4C(F)(F)F)cc3)ccc2C1 [Example 39, 2-Amino-2-((6-((2′-(trifluoromethyl)biphenyl-4-yl)methoxy)-3,4-dihydroisoquinolin-2(1H)-yl)methyl)propane-1,3-diol]	> 3.24	>1000	–	117	–
CCCOc1ccc(-c2nc(-c3cccc4c3CCN4CC(N)(CO)CO)no2)cc1I [Example 44, 2-Amino-2-((4-(5-(3-iodo-4-propoxyphenyl)-1,2,4-oxadiazol-3-yl)indolin-1-yl)methyl)propane-1,3-diol]	0.0481	18.24	–	60	–
CCCOc1ccc(-c2nc(-c3cccc4c3CCN4CC(N)(CO)CO)no2)cc1N [Example 46, 2-Amino-2-((4-(5-(3-amino-4-propoxyphenyl)-1,2,4-oxadiazol-3-yl)indolin-1-yl)methyl)propane-1,3-diol]	0.088	10.61	–	94	–
CCCc1ccc(-c2nc(-c3cccc4c3CCN4CC(N)(CO)CO)no2)cc1 [Example 48, 2-Amino-2-((4-(5-(4-propylphenyl)-1,2,4-oxadiazol-3-yl)indolin-1-yl)methyl)propane-1,3-diol]	0.0067	0.14	–	78	–
CC(C)Oc1ccc(-c2nc(-c3ccc4c(c3)CCN4CC(N)(CO)CO)no2)cc1Cl [Example 51, 2-Amino-2-((5-(5-(3-chloro-4-isopropoxyphenyl)-1,2,4-oxadiazol-3-yl)indolin-1-yl)methyl)propane-1,3-diol]	0.0035	0.38	–	85	–
CCCCOc1ccc(-c2nc(-c3ccc4c(c3)CCN4CC(N)(CO)CO)no2)cc1Cl [Example 52, 2-Amino-2-((5-(5-(4-butoxy-3-chlorophenyl)-1,2,4-oxadiazol-3-yl)indolin-1-yl)methyl)propane-1,3-diol]	0.0345	3.55	–	62	–
CCCCCOc1ccc(-c2nc(-c3ccc4c(c3)CCN4CC(N)(CO)CO)no2)cc1Cl [Example 54, 2-Amino-2-((5-(5-(3-chloro-4-(pentyloxy)phenyl)-1,2,4-oxadiazol-3-yl)indolin-1-yl)methyl)propane-1,3-diol]	0.0438	5.93	–	73	–
CCOc1ccc(-c2nc(-c3cccc4c3CCN4CC(N)(CO)CO)no2)cc1OC [Example 55, 2-Amino-2-((4-(5-(4-ethoxy-3-methoxyphenyl)-1,2,4-oxadiazol-3-yl)indolin-1-yl)methyl)propane-1,3-diol]	0.0316	2.56	–	101	–
CCCOc1ccc(-c2nc(-c3ccc4c(c3)CCN4CC(N)(CO)CO)no2)cc1Br [Example 56, 2-Amino-2-((5-(5-(3-bromo-4-propoxyphenyl)-1,2,4-oxadiazol-3-yl)indolin-1-yl)methyl)propane-1,3-diol]	0.0029	0.29	–	79	–
NC(CO)(CO)CN1CCc2cc(CCc3ccc(-c4ccccc4C(F)(F)F)cc3)ccc21 [Example 59, 2-Amino-2-((5-(2-(2′-(trifluoromethyl)biphenyl-4-yl)ethyl)indolin-1-yl)methyl)propane-1,3-diol]	> 2.13	>1000	–	–	–
